US12030878B2 (BRISTOL-MYERS SQUIBB COMPANY, priority 2017, dated 2024)

How the values were obtained:
Type in all cases: cell-based
[1] = molecular target: T1, human TLR7 (Homo sapiens, UniProt Q9NYK1); assay: TLR7 inhibition reporter assay (HEK-Blue SEAP); settings: HEK-Blue cells overexpressing human TLR7, stimulated with gardiquimod 7.5 μM, 22 hour incubation
T1 construct: host or cells: HEK-Blue cells
T1 sequence (Q9NYK1 27-1049): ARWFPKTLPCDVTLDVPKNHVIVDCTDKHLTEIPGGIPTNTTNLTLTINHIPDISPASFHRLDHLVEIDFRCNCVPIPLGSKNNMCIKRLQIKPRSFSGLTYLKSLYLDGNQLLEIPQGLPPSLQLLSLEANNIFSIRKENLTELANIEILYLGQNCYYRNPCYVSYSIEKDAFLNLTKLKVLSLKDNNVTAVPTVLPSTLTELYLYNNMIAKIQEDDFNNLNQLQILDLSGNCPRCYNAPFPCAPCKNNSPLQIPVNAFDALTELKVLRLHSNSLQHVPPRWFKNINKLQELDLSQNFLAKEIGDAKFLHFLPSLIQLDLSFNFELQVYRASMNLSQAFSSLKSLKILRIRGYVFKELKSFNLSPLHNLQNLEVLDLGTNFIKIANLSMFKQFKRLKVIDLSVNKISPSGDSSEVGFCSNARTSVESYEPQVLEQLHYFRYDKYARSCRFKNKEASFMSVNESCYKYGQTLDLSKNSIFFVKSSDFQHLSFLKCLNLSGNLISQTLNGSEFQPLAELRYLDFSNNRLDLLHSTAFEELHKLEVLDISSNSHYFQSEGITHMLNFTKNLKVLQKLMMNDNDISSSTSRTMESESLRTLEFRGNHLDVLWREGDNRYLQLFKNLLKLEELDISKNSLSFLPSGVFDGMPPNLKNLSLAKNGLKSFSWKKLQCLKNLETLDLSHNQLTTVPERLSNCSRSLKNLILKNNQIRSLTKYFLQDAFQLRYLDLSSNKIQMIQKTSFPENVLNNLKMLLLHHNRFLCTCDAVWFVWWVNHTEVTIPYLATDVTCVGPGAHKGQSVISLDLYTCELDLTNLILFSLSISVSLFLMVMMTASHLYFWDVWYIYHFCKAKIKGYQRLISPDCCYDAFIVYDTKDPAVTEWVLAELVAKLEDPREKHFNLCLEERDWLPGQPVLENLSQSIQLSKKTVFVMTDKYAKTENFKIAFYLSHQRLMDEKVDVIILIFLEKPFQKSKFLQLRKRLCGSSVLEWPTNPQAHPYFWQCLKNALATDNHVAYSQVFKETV
Summary of the method: (§1)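 Test compounds, final 0.05 nM–50 μM, pre-treat HEK-Blue human TLR7, TLR8 or TLR9 reporter cells before agonist addition (TLR8 R848 15.9 μM; TLR7 gardiquimod 7.5 μM; TLR9 ODN2006 5 nM). Incubation runs 22 h, 37 °C. SEAP detection gives percent inhibition against DMSO and reference-inhibitor controls.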

[2] = molecular target: T2, human TLR8 (Homo sapiens, UniProt Q9NR97); assay: TLR8 inhibition reporter assay (HEK-Blue SEAP); settings: HEK-Blue cells overexpressing human TLR8, stimulated with R848 15.9 μM, 22 hour incubation
T2 construct: host or cells: HEK-Blue cells
T2 sequence (Q9NR97 27-1041): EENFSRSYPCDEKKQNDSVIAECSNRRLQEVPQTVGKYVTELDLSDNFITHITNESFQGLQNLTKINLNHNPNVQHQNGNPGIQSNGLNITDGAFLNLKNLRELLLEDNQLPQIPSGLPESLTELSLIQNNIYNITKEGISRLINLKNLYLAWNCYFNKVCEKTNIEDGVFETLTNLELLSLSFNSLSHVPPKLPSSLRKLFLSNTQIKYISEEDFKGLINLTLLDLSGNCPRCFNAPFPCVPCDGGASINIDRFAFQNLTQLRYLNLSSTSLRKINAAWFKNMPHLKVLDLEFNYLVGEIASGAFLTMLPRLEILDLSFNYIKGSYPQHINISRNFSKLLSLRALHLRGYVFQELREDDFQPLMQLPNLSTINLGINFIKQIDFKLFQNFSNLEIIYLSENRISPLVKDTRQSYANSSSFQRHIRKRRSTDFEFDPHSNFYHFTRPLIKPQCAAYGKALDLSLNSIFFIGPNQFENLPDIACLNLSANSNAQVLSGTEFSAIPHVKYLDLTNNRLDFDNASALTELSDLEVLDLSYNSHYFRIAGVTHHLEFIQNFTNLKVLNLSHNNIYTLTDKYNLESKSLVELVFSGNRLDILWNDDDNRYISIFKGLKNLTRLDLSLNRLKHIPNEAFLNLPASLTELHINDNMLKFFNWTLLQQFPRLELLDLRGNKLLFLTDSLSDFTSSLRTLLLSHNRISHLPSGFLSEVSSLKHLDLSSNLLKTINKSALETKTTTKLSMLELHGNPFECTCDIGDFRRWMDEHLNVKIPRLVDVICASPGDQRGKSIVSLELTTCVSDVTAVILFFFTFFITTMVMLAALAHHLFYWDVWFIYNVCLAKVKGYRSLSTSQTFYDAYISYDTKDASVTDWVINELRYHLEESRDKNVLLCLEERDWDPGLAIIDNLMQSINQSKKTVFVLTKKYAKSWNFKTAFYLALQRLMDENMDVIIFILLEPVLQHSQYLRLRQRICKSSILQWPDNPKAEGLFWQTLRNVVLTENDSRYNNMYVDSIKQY
Summary of the method: as §1

[3] = molecular target: T3, human TLR9 (Homo sapiens, UniProt Q9NR96); assay: TLR9 inhibition reporter assay (HEK-Blue SEAP); settings: HEK-Blue cells overexpressing human TLR9, stimulated with ODN2006 5 nM, 22 hour incubation
T3 construct: host or cells: HEK-Blue cells
T3 sequence (Q9NR96 26-1032): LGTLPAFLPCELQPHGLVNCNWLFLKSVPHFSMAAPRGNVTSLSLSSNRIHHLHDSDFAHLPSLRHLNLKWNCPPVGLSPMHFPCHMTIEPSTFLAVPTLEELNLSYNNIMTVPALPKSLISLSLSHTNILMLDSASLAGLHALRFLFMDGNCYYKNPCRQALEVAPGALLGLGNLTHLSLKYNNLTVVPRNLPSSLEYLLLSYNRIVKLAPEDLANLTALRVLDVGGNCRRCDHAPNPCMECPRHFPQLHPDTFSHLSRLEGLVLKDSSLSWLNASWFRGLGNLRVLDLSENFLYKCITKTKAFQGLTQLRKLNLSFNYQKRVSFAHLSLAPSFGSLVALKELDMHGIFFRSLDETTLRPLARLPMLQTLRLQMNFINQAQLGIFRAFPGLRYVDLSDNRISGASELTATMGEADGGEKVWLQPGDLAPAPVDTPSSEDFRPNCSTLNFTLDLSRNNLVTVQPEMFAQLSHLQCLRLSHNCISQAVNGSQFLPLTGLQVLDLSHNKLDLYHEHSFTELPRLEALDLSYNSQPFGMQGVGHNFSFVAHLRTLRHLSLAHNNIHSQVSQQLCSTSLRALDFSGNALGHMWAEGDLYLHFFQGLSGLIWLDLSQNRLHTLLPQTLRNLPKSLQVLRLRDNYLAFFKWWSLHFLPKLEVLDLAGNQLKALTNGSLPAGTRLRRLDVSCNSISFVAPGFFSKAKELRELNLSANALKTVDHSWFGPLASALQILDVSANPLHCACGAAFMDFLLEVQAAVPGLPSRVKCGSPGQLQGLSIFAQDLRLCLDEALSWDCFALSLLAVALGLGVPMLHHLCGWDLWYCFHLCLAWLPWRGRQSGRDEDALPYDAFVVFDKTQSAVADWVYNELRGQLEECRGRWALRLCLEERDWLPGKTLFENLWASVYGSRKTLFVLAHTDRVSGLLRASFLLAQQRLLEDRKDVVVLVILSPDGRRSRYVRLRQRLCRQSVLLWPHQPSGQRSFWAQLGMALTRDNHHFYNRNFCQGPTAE
Summary of the method: as §1

Row | SMILES | IC50 [1] | IC50 [2] | IC50 [3]
1 | Cc1cc(-c2[nH]c3ccc(OCC4CN(C5COC5)C4)cc3c2C(C)C)cn2ncnc12 [Example 60, 6-(3-isopropyl-5-((1-(oxetan-3-yl)azetidin-3-yl)methoxy)-1H-indol-2-yl)-8-methyl-[1,2,4]triazolo[1,5-a]pyridine] | 1.2 nM | 4.7 nM | 2620 nM
2 | COc1cc(-c2[nH]c3ccc(OC4CCN(C)CC4)cc3c2C(C)C)cn2ncnc12 [Example 65, 6-(3-isopropyl-5-((1-methylpiperidin-4-yl)oxy)-1H-indol-2-yl)-8-methoxy-[1,2,4]triazolo[1,5-a]pyridine] | 0.3 nM | 0.5 nM | 1750 nM
3 | COCCN1CCC(COc2ccc3[nH]c(-c4cc(C)nc(C)c4)c(C(C)C)c3c2)CC1 [Example 73, 2-(2,6-dimethylpyridin-4-yl)-3-isopropyl-5-((1-(2-methoxyethyl)piperidin-4-yl)methoxy)-1H-indole] | 13.4 nM | 5.2 nM | 633 nM
4 | Cc1cc(-c2[nH]c3ccc(OCC4CCN(C(C)C)CC4)cc3c2C(C)C)cn(C)c1=O [Example 36, 5-(3-isopropyl-5-((1-isopropylpiperidin-4-yl)methoxy)-1H-indol-2-yl)-1,3-dimethylpyridin-2(1H)-one] | 5.6 nM | 2.4 nM | 10600 nM
5 | Cc1cc(-c2[nH]c3ccc(O[C@H]4CCCN(C(=O)CN(C)C)C4)cc3c2C(C)C)cn2ncnc12 [Example 99, (S)-2-(dimethylamino)-1-(3-((3-isopropyl-2-(8-methyl-[1,2,4]triazolo[1,5-a]pyridin-6-yl)-1H-indol-5-yl)oxy)piperidin-1-yl)ethan-1-one] | 3.1 nM | 25.2 nM | 4870 nM
6 | Cc1cc(-c2[nH]c3ccc(OC4CCN(C(=O)CN(C)C)CC4)cc3c2C(C)C)cn(C)c1=O [Example 100, 5-(5-((1-(dimethylglycyl)piperidin-4-yl)oxy)-3-isopropyl-1H-indol-2-yl)-1,3-dimethylpyridin-2(1H)-one] | 4.1 nM | 10.4 nM | 9840 nM
7 | Cc1c(-c2[nH]c3ccc(OCC4CCN(C5COC5)CC4)cc3c2C(C)C)cn2cnnc2c1C [Example 52, 6-(3-isopropyl-5-((1-(oxetan-3-yl)piperidin-4-yl)methoxy)-1H-indol-2-yl)-7,8-dimethyl-[1,2,4]triazolo[4,3-a]pyridine] | 6.1 nM | 5.8 nM | 7810 nM
8 | Cc1c(-c2[nH]c3ccc(OCC4CN(CC(C)(C)O)C4)cc3c2C(C)C)cn2cnnc2c1C [Example 28, 1-(3-(((2-(7,8-dimethyl-[1,2,4]triazolo[4,3-a]pyridin-6-yl)-3-isopropyl-1H-indol-5-yl)oxy)methyl)azetidin-1-yl)-2-methylpropan-2-ol] | 6.1 nM | 21.7 nM | 1250 nM

Results, then the molecule that gave them:

Row | IC50 [1] | IC50 [2] | IC50 [3] | SMILES
9 | 328 nM | 113 nM | 1010 nM | COc1ccc(-c2[nH]c3ccc(OCC(=O)N4CCCC(CCN)C4)cc3c2C(C)C)cc1OC (stereo not drawn) [Example 122, 1-(3-(2-aminoethyl)piperidin-1-yl)-2-((2-(3,4-dimethoxyphenyl)-3-isopropyl-1H-indol-5-yl)oxy)ethan-1-one]
10 | 142 nM | 51.4 nM | 172 nM | Cc1cc(-c2[nH]c3ccc(OCC(=O)N(C)C4CCNCC4)cc3c2C(C)C)ccn1 [Example 148, 2-((3-isopropyl-2-(2-methylpyridin-4-yl)-1H-indol-5-yl)oxy)-N-methyl-N-(piperidin-4-yl) acetamide]
11 | 164 nM | 227 nM | 2310 nM | COc1ccc(-c2[nH]c3ccc(OCC(=O)N4CCC[C@]5(CCCC[C@@H]5N)C4)cc3c2C(C)C)cc1OC [Example 123, 1-((6R,7S)-7-amino-2-azaspiro[5.5]undecan-2-yl)-2-((2-(3,4-dimethoxyphenyl)-3-isopropyl-1H-indol-5-yl)oxy)ethan-1-one]
12 | 126 nM | 37 nM | 777 nM | COc1ccc(-c2[nH]c3ccc(OCC(=O)NC4CCNCC4)cc3c2C(C)C)cc1OC [Example 136, 2-((2-(3,4-dimethoxyphenyl)-3-isopropyl-1H-indol-5-yl)oxy)-N-(piperidin-4-yl)acetamide]
13 | 461 nM | 2530 nM | > 50000 nM | COc1ccc(-c2[nH]c3ccc(OCC(=O)NCCC(C)(C)O)cc3c2C(C)C)cc1OC [Example 153, 2-((2-(3,4-dimethoxyphenyl)-3-isopropyl-1H-indol-5-yl)oxy)-N-(3-hydroxy-3-methylbutyl)acetamide]
14 | 39.7 nM | 2.5 nM | 1440 nM | Cc1cc(-c2[nH]c3ccc(OC4CCN(C)CC4)cc3c2C(C)C)ccn1 [Example 179, 3-isopropyl-5-((1-methylpiperidin-4-yl)oxy)-2-(2-methylpyridin-4-yl)-1H-indole]
